Patent publication US6413930B1, “Use of cck-b receptor antagonists for the treatment of sleep disorders” (Glaxo Wellcome Spa, priority 1994, dated 2002)

Tested on: old rats
Assay: Effect on sleep patterns (EEG pattern) in old rats
Format: in vivo
Conditions: single dose, ip
Procedure: In these animals the EEG patterns are disturbed. Administration of an effective amount of a CCK-B antagonist to such an animal alters the EEG pattern towards the normal. These effects may be observed using standard procedures such as those described by H.Depoortere et al. Physiology & Behaviour 1993, 54, 785-793.
The ability of CCK-B antagonists to effect sleep patterns in old rats was measured by examining the effect of the compound on the EEG pattern using the procedures described by H Depoortere et al. Physiology & Behaviour 1993 54, 785-793.

Row | Compound | Dose that resulted in a significant improvement in total sleep time pattern [µg/kg]
1 | CN(C)CCN1C(=O)C(NC(=O)Nc2ccccc2)C(=O)N(CC23CC4CC(CC(C4)C2)C3)c2ccccc21 (stereo not drawn) [Compound 6] | 0.5
2 | CC(CNCC(NC(=O)CCC(=O)O)c1ccccc1)(Cc1c[nH]c2ccccc12)NC(=O)OC1C2CC3CC(C2)CC1C3.CNCC(O)C(O)C(O)C(O)CO (stereo not drawn) [Compound 4, (R-(R*, R*))4-((2-((3-(1H-indol-3-yl)-2-methyl-2-((tricyclo(3,3,1,1,3,7)dec-2yloxy)carbonyl)aminopropyl)amino)-1-phenylethyl)amino-4-oxo-butanoic acid meglumine salt] | 5
3 | O=C(Nc1cccc(C(=O)O)c1)NC1C(=O)N(CC23CC4CC(CC(C4)C2)C3)c2ccccc2N(c2ccccc2)C1=O (stereo not drawn) [Compound 5, N-1[-(Adamantylmethyl)-2,4,-dioxo-5-phenyl-2,3,4,5-tetrahydro-1H-1,5-benzodiazepin-3-yl]-N′-(3-carboxyphenyl)urea] | 15
4 | O=C(Nc1ccccc1)NC1C(=O)N(CCN2CCOCC2)c2ccccc2N(CC23CC4CC(CC(C4)C2)C3)C1=O (single isomer, unassigned; (-)) [Compound 2, (−) N-[1-(1-Adamantylmethyl)-2,4-dioxo-5-[2-(4-morpholino)ethyl]-2,3,4,5-tetrahydro-1H-benzodiazepin-3-yl]-N′-phenylurea] | 0.5
5 | Cc1cccc(NC(=O)NC2N=C(c3ccccc3)c3ccccc3N(C)C2=O)c1 (stereo not drawn) [Compound 3, N-(2,3-dihydro-1-methyl-2-oxo-5-phenyl-1H-1,4-benzodiazepin-3-yl]-N′-3-methylphenyl urea] | 5

Same assay, conditions: single dose, ip and po

Row | Compound | Dose that resulted in a significant improvement in total sleep time pattern [µg/kg]
6 | O=C(Nc1ccccc1)NC1C(=O)N(CC23CC4CC(CC(C4)C2)C3)c2ccccc2N(c2ccccc2)C1=O (single isomer, unassigned; (+)) [Compound 1, (+) N-phenyl-N′-[2,3,4,5-tetrahydro-2,4-dioxo-1-(1-adamantylmethyl)-5-phenyl-1H-1,5-benzodiazepin-3-yl]urea] | 5
